Molecular target: mGluR5 receptor (Sus scrofa, UniProt I3LUI7)
Assay: Affinity for the mGluR5 receptor: inhibition of 3[H]-MPEP binding in pig brain homogenate
Settings: 10 μM compound, 5 nM 3[H]-MPEP, read-out: mGluR5 receptor inhibition of ^3[H]-MPEP binding [10 μM] in % at a concentration of the example compounds of 10 μM
Summary of the method: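 Pig brain membranes (450 μg protein; hemispheres without medulla, cerebellum and pons) in 30 mM Hepes pH 8.0 were incubated 60 min at room temperature with 5 nM [3H]-MPEP and compound at 10 μM. Bound radioactivity was filtered and counted. Nonspecific binding was defined with 10 μM MPEP.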

Sequence of mGluR5 receptor (I3LUI7 19-1212): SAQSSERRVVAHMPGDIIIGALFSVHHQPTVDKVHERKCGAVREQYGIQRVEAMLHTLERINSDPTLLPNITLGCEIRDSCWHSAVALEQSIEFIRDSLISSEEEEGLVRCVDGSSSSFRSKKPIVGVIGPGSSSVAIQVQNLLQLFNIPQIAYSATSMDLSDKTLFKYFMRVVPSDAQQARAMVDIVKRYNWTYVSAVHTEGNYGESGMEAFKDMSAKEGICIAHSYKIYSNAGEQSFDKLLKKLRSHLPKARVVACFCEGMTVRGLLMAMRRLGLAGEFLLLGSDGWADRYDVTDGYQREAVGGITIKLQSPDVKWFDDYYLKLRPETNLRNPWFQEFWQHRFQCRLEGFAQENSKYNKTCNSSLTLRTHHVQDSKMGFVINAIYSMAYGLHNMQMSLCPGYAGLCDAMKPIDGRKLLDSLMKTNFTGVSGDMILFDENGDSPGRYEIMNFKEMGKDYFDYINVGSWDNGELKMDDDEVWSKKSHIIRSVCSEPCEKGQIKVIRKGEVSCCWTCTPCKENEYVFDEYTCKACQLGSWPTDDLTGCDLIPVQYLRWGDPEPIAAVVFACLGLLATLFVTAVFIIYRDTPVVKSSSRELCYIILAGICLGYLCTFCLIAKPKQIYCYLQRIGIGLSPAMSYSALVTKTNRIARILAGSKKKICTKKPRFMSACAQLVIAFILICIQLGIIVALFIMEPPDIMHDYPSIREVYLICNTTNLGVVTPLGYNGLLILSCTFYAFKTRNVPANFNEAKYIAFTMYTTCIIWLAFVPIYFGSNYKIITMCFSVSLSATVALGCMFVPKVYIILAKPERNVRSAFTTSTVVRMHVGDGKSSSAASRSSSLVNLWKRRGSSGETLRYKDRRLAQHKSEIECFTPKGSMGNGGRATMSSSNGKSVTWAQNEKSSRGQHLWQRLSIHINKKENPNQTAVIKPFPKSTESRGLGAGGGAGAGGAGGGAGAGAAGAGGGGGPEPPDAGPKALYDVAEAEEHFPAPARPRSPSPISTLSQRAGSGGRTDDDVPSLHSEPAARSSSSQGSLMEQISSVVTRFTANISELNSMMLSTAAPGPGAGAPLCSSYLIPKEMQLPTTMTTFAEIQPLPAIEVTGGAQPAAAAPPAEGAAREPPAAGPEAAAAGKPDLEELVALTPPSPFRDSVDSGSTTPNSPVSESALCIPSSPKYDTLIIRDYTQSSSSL

| SMILES | inhibition at 10 µM |
| --- | --- |
| Cc1ccn2c(NC(C)(C)C)c(-c3ccc(C#Cc4ccccn4)cc3)nc2c1 [Example 278, N-tert-butyl-7-methyl-2-(4-(pyridin-2-ylethynyl)phenyl)imidazo[1,2-a]pyridin-3-amine] | 93% |
| Cc1ccn2c(Nc3ccc(F)cc3)c(-c3ccc(C#Cc4ccccn4)o3)nc2c1 [Example 279, N-(4-fluorophenyl)-7-methyl-2-(5-(pyridin-2-ylethynyl)furan-2-yl)imidazo[1,2-a]pyridin-3-amine] | 67% |
| Cc1cccn2c(NC3CCCCC3)c(-c3ccc(C#Cc4ccccc4)nc3)nc12 [Example 280, N-cyclohexyl-8-methyl-2-(6-(phenylethynyl)pyridin-3-yl)imidazo[1,2-a]pyridin-3-amine] | 31% |
| C(#Cc1ccc(-c2nc3ccccn3c2NC2CCCC2)cn1)c1ccccc1 [Example 281, N-cyclopentyl-2-(6-(phenylethynyl)pyridin-3-yl)imidazo[1,2-a]pyridin-3-amine] | 83% |
| CC(C)(C)Nc1c(-c2ccc(C#Cc3ccccc3)nc2)nc2ccccn12 [Example 282, N-tert-butyl-2-(6-(phenylethynyl)pyridin-3-yl)imidazo[1,2-a]pyridin-3-amine] | 72% |
| C(#Cc1ccc(-c2nc3ccccn3c2NC2CCCCC2)cn1)c1ccccc1 [Example 283, N-cyclohexyl-2-(6-(phenylethynyl)pyridin-3-yl)imidazo[1,2-a]pyridin-3-amine] | 82% |
| CC(C)(C)CC(C)(C)Nc1c(-c2ccc(C#Cc3ccccc3)nc2)nc2ccccn12 [Example 284, 2-(6-(phenylethynyl)pyridin-3-yl)-N-(2,4,4-trimethylpentan-2-yl)imidazo[1,2-a]pyridin-3-amine] | 68% |
| CC(C)(C)Nc1c(-c2ccc(C#Cc3ccccn3)o2)nc2ccccn12 [Example 285, N-tert-butyl-2-(5-(pyridin-2-ylethynyl)furan-2-yl)imidazo[1,2-a]pyridin-3-amine] | 88% |
| C(#Cc1ccc(-c2nc3ccccn3c2NC2CCCCC2)o1)c1ccccn1 [Example 286, N-cyclohexyl-2-(5-(pyridin-2-ylethynyl)furan-2-yl)imidazo[1,2-a]pyridin-3-amine] | 72% |
| Fc1ccc(Nc2c(-c3ccc(C#Cc4ccccn4)o3)nc3ccccn23)cc1 [Example 287, N-(4-fluorophenyl)-2-(5-(pyridin-2-ylethynyl)furan-2-yl)imidazo[1,2-a]pyridin-3-amine] | 30% |
| Cc1cccc(C#Cc2cccc(-c3nc4ccccn4c3NC3CCCCC3)c2)n1 [Example 288, N-cyclohexyl-2-(3-((6-methylpyridin-2-yl)ethynyl)phenyl)imidazo[1,2-a]pyridin-3-amine] | 89% |
| Cc1cccc(C#Cc2cccc(-c3nc4ccccn4c3NC(C)(C)CC(C)(C)C)c2)n1 [Example 289, 2-(3-((6-methylpyridin-2-yl)ethynyl)phenyl)-N-(2,4,4-trimethylpentan-2-yl)imidazo[1,2-a]pyridin-3-amine] | 51% |
| Cc1cccc(C#Cc2cccc(-c3nc4cccc(C)n4c3NC(C)(C)C)c2)n1 [Example 290, N-tert-butyl-5-methyl-2-(3-((6-methylpyridin-2-yl)ethynyl)phenyl)imidazo[1,2-a]pyridin-3-amine] | 88% |
| Cc1cccc(C#Cc2cccc(-c3nc4cccc(C)n4c3NC(C)(C)CC(C)(C)C)c2)n1 [Example 291, 5-methyl-2-(3-((6-methylpyridin-2-yl)ethynyl)phenyl)-N-(2,4,4-trimethylpentan-2-yl)imidazo[1,2-a]pyridin-3-amine] | 92% |
| Cc1cc(C)n2c(NC3CCCCC3)c(-c3cccc(C#Cc4ccccn4)c3)nc2n1 [Example 292, N-cyclohexyl-5,7-dimethyl-2-(3-(pyridin-2-ylethynyl)phenyl)imidazo[1,2-a]pyrimidin-3-amine] | 88% |
| Cc1cc(C)n2c(NC3CCCCC3)c(-c3ccc(C#Cc4ccccc4)nc3C)nc2n1 [Example 293, N-cyclohexyl-5,7-dimethyl-2-(2-methyl-6-(phenylethynyl)pyridin-3-yl)imidazo[1,2-a]pyrimidin-3-amine] | 70% |
| Cc1cc(C)n2c(NC3CCCC3)c(-c3ccc(C#Cc4ccccn4)o3)nc2n1 [Example 294, N-cyclopentyl-5,7-dimethyl-2-(5-(pyridin-2-ylethynyl)furan-2-yl)imidazo[1,2-a]pyrimidin-3-amine] | 79% |
| Cc1cc(C)n2c(NC(C)(C)C)c(-c3ccc(C#Cc4ccccn4)o3)nc2n1 [Example 295, N-tert-butyl-5,7-dimethyl-2-(5-(pyridin-2-ylethynyl)furan-2-yl)imidazo[1,2-a]pyrimidin-3-amine] | 84% |
| Cc1cccn2c(Nc3ccc(F)cc3)c(-c3cccc(C#Cc4ccccn4)c3)nc12 [Example 296, N-(4-fluorophenyl)-8-methyl-2-(3-(pyridin-2-ylethynyl)phenyl)imidazo[1,2-a]pyridin-3-amine] | 85% |

| SMILES | inhibition at 10 µM |
| --- | --- |
| Cc1cccn2c(NC3CCCCC3)c(-c3ccc(C#Cc4ccccn4)cc3)nc12 [Example 297, N-cyclohexyl-8-methyl-2-(4-(pyridin-2-ylethynyl)phenyl)imidazo[1,2-a]pyridin-3-amine] | 80% |
| CCc1ccn2c(NC3CCCCC3)c(-c3ccc(C#Cc4ccccn4)s3)nc2c1 [Example 298, N-cyclohexyl-7-ethyl-2-(5-(pyridin-2-ylethynyl)thiophen-2-yl)imidazo[1,2-a]pyridin-3-amine] | 95% |
| CCc1ccn2c(NC(C)(C)CC(C)(C)C)c(-c3ccc(C#Cc4ccccn4)s3)nc2c1 [Example 299, 7-ethyl-2-(5-(pyridin-2-ylethynyl)thiophen-2-yl)-N-(2,4,4-trimethylpentan-2-yl)imidazo[1,2-a]pyridin-3-amine] | 86% |
| CCc1ccn2c(NC3CCCCC3)c(-c3cccc(C#Cc4ccccn4)c3)nc2c1 [Example 300, N-cyclohexyl-7-ethyl-2-(3-(pyridin-2-ylethynyl)phenyl)imidazo[1,2-a]pyridin-3-amine] | 50% |
| CCc1ccn2c(NC3CCCC3)c(-c3ccc(C#Cc4ccccn4)cc3)nc2c1 [Example 301, N-cyclopentyl-7-ethyl-2-(4-(pyridin-2-ylethynyl)phenyl)imidazo[1,2-a]pyridin-3-amine] | 78% |
| CCc1ccn2c(NC3CCCC3)c(-c3ccc(C#Cc4ccccc4)nc3)nc2c1 [Example 302, N-cyclopentyl-7-ethyl-2-(6-(phenylethynyl)pyridin-3-yl)imidazo[1,2-a]pyridin-3-amine] | 55% |
| CCc1ccn2c(NC(C)(C)C)c(-c3ccc(C#Cc4ccccc4)nc3)nc2c1 [Example 303, N-tert-butyl-7-ethyl-2-(6-(phenylethynyl)pyridin-3-yl)imidazo[1,2-a]pyridin-3-amine] | 67% |
| CCc1ccn2c(NC(C)(C)C)c(-c3ccc(C#Cc4ccccn4)o3)nc2c1 [Example 304, N-tert-butyl-7-ethyl-2-(5-(pyridin-2-ylethynyl)furan-2-yl)imidazo[1,2-a]pyridin-3-amine] | 94% |
| CC(C)c1ccn2c(NC(C)(C)CC(C)(C)C)c(-c3ccc(C#Cc4ccccn4)s3)nc2c1 [Example 305, 7-isopropyl-2-(5-(pyridin-2-ylethynyl)thiophen-2-yl)-N-(2,4,4-trimethylpentan-2-yl)imidazo[1,2-a]pyridin-3-amine] | 75% |
| CC(C)c1ccn2c(NC(C)(C)C)c(-c3cccc(C#Cc4ccccn4)c3)nc2c1 [Example 306, N-tert-butyl-7-isopropyl-2-(3-(pyridin-2-ylethynyl)phenyl)imidazo[1,2-a]pyridin-3-amine] | 76% |
| CC(C)c1ccn2c(NC(C)(C)C)c(-c3ccc(C#Cc4ccccn4)cc3)nc2c1 [Example 307, N-tert-butyl-7-isopropyl-2-(4-(pyridin-2-ylethynyl)phenyl)imidazo[1,2-a]pyridin-3-amine] | 88% |
| CC(C)c1ccn2c(NC3CCCCC3)c(-c3ccc(C#Cc4ccccn4)o3)nc2c1 [Example 308, N-cyclohexyl-7-isopropyl-2-(5-(pyridin-2-ylethynyl)furan-2-yl)imidazo[1,2-a]pyridin-3-amine] | 70% |
| Cc1cccc(C#Cc2cccc(-c3nc4cc(C(C)C)ccn4c3NC(C)(C)C)c2)n1 [Example 309, N-tert-butyl-7-isopropyl-2-(3-((6-methylpyridin-2-yl)ethynyl)phenyl)imidazo[1,2-a]pyridin-3-amine] | 82% |
| Clc1ccc2nc(-c3ccc(C#Cc4ccccn4)s3)c(NC3CCCC3)n2c1 [Example 310, 6-chloro-N-cyclopentyl-2-(5-(pyridin-2-ylethynyl)thiophen-2-yl)imidazo[1,2-a]pyridin-3-amine] | 86% |
| CC(C)(C)Nc1c(-c2ccc(C#Cc3ccccn3)s2)nc2ccc(Cl)cn12 [Example 311, N-tert-butyl-6-chloro-2-(5-(pyridin-2-ylethynyl)thiophen-2-yl)imidazo[1,2-a]pyridin-3-amine] | 86% |
| Clc1ccc2nc(-c3cccc(C#Cc4ccccn4)c3)c(NC3CCCCC3)n2c1 [Example 312, 6-chloro-N-cyclohexyl-2-(3-(pyridin-2-ylethynyl)phenyl)imidazo[1,2-a]pyridin-3-amine] | 64% |
| CC(C)(C)CC(C)(C)Nc1c(-c2cccc(C#Cc3ccccn3)c2)nc2ccc(Cl)cn12 [Example 313, 6-chloro-2-(3-(pyridin-2-ylethynyl)phenyl)-N-(2,4,4-trimethylpentan-2-yl)imidazo[1,2-a]pyridin-3-amine] | 33% |
| CC(C)(C)Nc1c(-c2ccc(C#Cc3ccccn3)cc2)nc2ccc(Cl)cn12 [Example 314, N-tert-butyl-6-chloro-2-(4-(pyridin-2-ylethynyl)phenyl)imidazo[1,2-a]pyridin-3-amine] | 79% |

From patent US7420056B2, “Substituted bicyclic imidazo-3-ylamine compounds” (Gruenenthal GmbH, priority 2004, dated 2008)
